One assay concerns the target NK1 receptors (Homo sapiens, UniProt P25103). Description: in vitro binding to NK1 receptors. The procedure:
(§1) The activity of compounds of the invention were tested in vitro for binding to NK1 and NK2 receptors.

A further assay has as its target T1, NK2 receptors (Homo sapiens, UniProt P21452).
T1 sequence (P21452 1-398): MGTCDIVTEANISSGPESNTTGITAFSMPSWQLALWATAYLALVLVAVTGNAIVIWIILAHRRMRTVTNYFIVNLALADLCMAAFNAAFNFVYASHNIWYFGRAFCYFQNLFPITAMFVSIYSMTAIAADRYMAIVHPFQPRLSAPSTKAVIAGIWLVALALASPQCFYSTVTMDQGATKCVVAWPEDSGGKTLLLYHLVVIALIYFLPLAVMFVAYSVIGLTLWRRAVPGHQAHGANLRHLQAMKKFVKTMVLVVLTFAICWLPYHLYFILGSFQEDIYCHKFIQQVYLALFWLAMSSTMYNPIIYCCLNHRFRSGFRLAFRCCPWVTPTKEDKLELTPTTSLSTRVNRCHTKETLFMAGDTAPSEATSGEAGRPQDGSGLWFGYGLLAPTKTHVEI
Description: in vitro binding to NK2 receptors. Also noted: Ki (NK2), % @ 1000: concentration or dose not given beside the values. The note with it: for Ki (NK2), % @ 1000: @ 1000 (concentration unit not given). The protocol: as §1

Read-outs that look alike come from different tables or passages of the source.

Chain of NK1 receptors (P25103 whole entry): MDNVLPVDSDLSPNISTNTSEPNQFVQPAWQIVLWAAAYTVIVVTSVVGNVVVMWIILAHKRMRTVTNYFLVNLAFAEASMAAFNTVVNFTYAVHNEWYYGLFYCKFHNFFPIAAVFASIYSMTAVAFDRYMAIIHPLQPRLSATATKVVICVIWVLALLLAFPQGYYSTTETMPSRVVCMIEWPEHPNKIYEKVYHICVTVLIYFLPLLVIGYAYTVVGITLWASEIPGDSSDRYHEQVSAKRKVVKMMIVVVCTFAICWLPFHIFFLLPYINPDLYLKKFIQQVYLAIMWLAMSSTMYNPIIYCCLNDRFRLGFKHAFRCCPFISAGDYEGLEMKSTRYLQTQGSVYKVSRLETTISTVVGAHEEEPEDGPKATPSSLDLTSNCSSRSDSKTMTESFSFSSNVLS

`OC(CNC1CCN(c2ncnc3scc(-c4ccccc4)c23)CC1)COc1ccc(F)cc1F` (centres unmarked) [1-(2,4-Difluoro-phenoxy)-3-[1-(5-phenyl-thieno[2,3-d]pyrimidin-4-yl)-piperidin-4-ylamino]-propan-2-ol] had an inhibition constant Ki on NK1 receptors of 286 nM. `COc1ccc(OCC(O)CNC2CCN(c3ncnc4scc(-c5ccccc5)c34)CC2)c(Cl)c1` (centres unmarked) [1-(2-Chloro-4-methoxy-phenoxy)-3-[1-(5-phenyl-thieno[2,3-d]pyrimidin-4-yl)-piperidin-4-ylamino]-propan-2-ol]: the Ki on NK1 receptors stood at 109 nM; on NK2 receptors (unit inferred), 1570 nM. In the case of `OC(CNC1CCN(c2ncnc3scc(-c4ccccc4)c23)CC1)COc1ccc(Cl)c(Cl)c1` (centres unmarked) [1-(3,4-Dichloro-phenoxy)-3-[1-(5-phenyl-thieno[2,3-d]pyrimidin-4-yl)-piperidin-4-ylamino]-propan-2-ol], the results for the Ki on NK1 receptors and at NK2 receptors (unit inferred) were 268 nM and 3390 nM, respectively. Turning to `OC(CNC1CCN(c2ncnc3scc(-c4ccccc4)c23)CC1)COc1ccc(F)c(F)c1` (centres unmarked) [1-(3,4-Difluoro-phenoxy)-3-[1-(5-phenyl-thieno[2,3-d]pyrimidin-4-yl)-piperidin-4-ylamino]-propan-2-ol], the Ki at NK1 receptors worked out at 75 nM. For the same compound, the “Ki (NK2), % @ 1000” value at NK2 receptors worked out at 28% @. Regarding `COc1ccc(OCC(O)CNC2CCN(c3ncnc4scc(-c5ccccc5)c34)CC2)cc1OC` (centres unmarked) [1-(3,4-Dimethoxy-phenoxy)-3-[1-(5-phenyl-thieno[2,3-d]pyrimidin-4-yl)-piperidin-4-ylamino]-propan-2-ol], the inhibition constant (Ki) at NK1 receptors is 126 nM; at NK2 receptors (unit inferred) it was 6250 nM. The corresponding values for `OC(CNC1CCN(c2ncnc3scc(-c4ccccc4)c23)CC1)COc1cc(C(F)(F)F)cc(C(F)(F)F)c1` (centres unmarked) [1-(3,5-Bis-trifluoromethyl-phenoxy)-3-[1-(5-phenyl-thieno[2,3-d]pyrimidin-4-yl)-piperidin-4-ylamino]-propan-2-ol] are 1310 nM and greater than 1000 nM. Regarding `OC(CNC1CCN(c2ncnc3scc(-c4ccccc4)c23)CC1)COc1cc(F)cc(F)c1` (centres unmarked) [1-(3,5-Difluoro-phenoxy)-3-[1-(5-phenyl-thieno[2,3-d]pyrimidin-4-yl)-piperidin-4-ylamino]-propan-2-ol], on NK1 receptors, the Ki turned out to be 272 nM. Also, the “Ki (NK2), % @ 1000” value at NK2 receptors is 21% @. In the case of `OC(CNC1CCN(c2ncnc3scc(-c4ccccc4)c23)CC1)COc1ccc(F)c(Cl)c1` (centres unmarked) [1-(3-Chloro-4-fluoro-phenoxy)-3-[1-(5-phenyl-thieno[2,3-d]pyrimidin-4-yl)-piperidin-4-ylamino]-propan-2-ol], the inhibition constant Ki at NK1 receptors stood at 137 nM. `COc1cc(OCC(O)CNC2CCN(c3ncnc4scc(-c5ccccc5)c34)CC2)ccc1Cl` (centres unmarked) [1-(4-Chloro-3-methoxy-phenoxy)-3-[1-(5-phenyl-thieno[2,3-d]pyrimidin-4-yl)-piperidin-4-ylamino]-propan-2-ol]: the inhibition constant (Ki) on NK1 receptors was 126 nM. Further, the “Ki (NK2), % @ 1000” value on NK2 receptors was 47% @.

Take `COc1ccc(OCC(O)CNC2CCN(c3ncnc4scc(-c5ccccc5)c34)CC2)cc1` (centres unmarked) [1-(4-Methoxy-phenoxy)-3-[1-(5-phenyl-thieno[2,3-d]pyrimidin-4-yl)-piperidin-4-ylamino]-propan-2-ol]: the inhibitory constant (Ki) on NK1 receptors came to 53 nM; at NK2 receptors, 1700 nM. As for `OC(CNC1CCN(c2ncnc3sccc23)CC1)COc1ccc2c(c1)OCO2` (centres unmarked) [1-(Benzo[1,3]dioxol-5-yloxy)-3-(1-thieno[2,3-d]pyrimidin-4-yl-piperidin-4-ylamino)-propan-2-ol], the inhibition constant (Ki) on NK1 receptors amounted to 1830 nM. The compound `Cc1csc2ncnc(N3CCC(NCC(O)COc4ccc5c(c4)OCO5)CC3)c12` (centres unmarked) [1-(Benzo[1,3]dioxol-5-yloxy)-3-[1-(5-methyl-thieno[2,3-d]pyrimidin-4-yl)-piperidin-4-ylamino]-propan-2-ol] returned a Ki at NK1 receptors of 868 nM.

Regarding `OC(CNC1CCN(c2ncnc3scc(-c4ccccc4)c23)CC1)COc1ccc2c(c1)OCO2` (centres unmarked) [1-(Benzo[1,3]dioxol-5-yloxy)-3-[1-(5-phenyl-thieno[2,3-d]pyrimidin-4-yl)-piperidin-4-ylamino]-propan-2-ol], the Ki at NK1 receptors is 7.6 nM; at NK2 receptors (unit inferred) it was greater than 10000 nM. At NK1 receptors, `OC(CNC1CCN(c2ncnc3scc(-c4ccccc4)c23)CC1)COc1ccc(OC(F)(F)F)cc1` (centres unmarked) [1-[1-(5-Phenyl-thieno[2,3-d]pyrimidin-4-yl)-piperidin-4-ylamino]-3-(4-trifluoromethoxy-phenoxy)-propan-2-ol] yielded an inhibition constant Ki of 15 nM. Further, the “Ki (NK2), % @ 1000” value on NK2 receptors is recorded as 49% @. On to `Fc1ccc(OCC2CN(C3CCN(c4ncnc5scc(-c6ccccc6)c45)CC3)CCO2)cc1` (centres unmarked) [4-{4-[2-(4-Fluoro-phenoxymethyl)-morpholin-4-yl]-piperidin-1-yl}-5-phenyl-thieno[2,3-d]pyrimidine], for which the Ki on NK1 receptors was found to be 472 nM. Same read-out and setting: then `c1ccc(-c2csc3ncnc(N4CCC(N5CCOC(COc6ccc7c(c6)OCO7)C5)CC4)c23)cc1` (centres unmarked) [4-{4-[2-(Benzo[1,3]dioxol-5-yloxymethyl)-morpholin-4-yl]-piperidin-1-yl}-5-phenyl-thieno[2,3-d]pyrimidine], with 1860 nM; and `O=C1COC(COc2ccc3c(c2)OCO3)CN1C1CCN(c2ncnc3scc(-c4ccccc4)c23)CC1` (centres unmarked) [6-(Benzo[1,3]dioxol-5-yloxymethyl)-4-[1-(5-phenyl-thieno[2,3-d]pyrimidin-4-yl)-piperidin-4-yl]-morpholin-3-one], with 1320 nM. Take `OC(CNC1CCN(c2ncnc3scc(-c4ccccc4)c23)CC1)COCc1ccccc1` (centres unmarked) [(3-Benzyloxy-2-hydroxy-propyl)-[1-(5-phenyl-thieno[2,3-d]pyrimidin-4-yl)-piperidin-4-yl]-ammonium; chloride]: the figures for the inhibition constant Ki at NK1 receptors and at NK2 receptors were 141 nM and 2400 nM, respectively. At NK1 receptors, `Cl.OC(CNC1CCN(c2ncnc3scc(-c4ccccc4)c23)CC1)COc1ccc(C(F)(F)F)cc1` (centres unmarked) [[2-Hydroxy-3-(4-trifluoromethyl-phenoxy)-propyl]-[1-(5-phenyl-thieno[2,3-d]pyrimidin-4-yl)-piperidin-4-yl]-ammonium; chloride] returned a Ki of 53 nM. The “Ki (NK2), % @ 1000” value at NK2 receptors was found to be 14% @. On the same counts, the results for `Cl.OC(CNC1CCN(c2ncnc3scc(-c4ccccc4)c23)CC1)COc1ccc(Cl)c(Cl)c1` (centres unmarked) [[3-(3,4-Dichloro-phenoxy)-2-hydroxy-propyl]-[1-(5-phenyl-thieno[2,3-d]pyrimidin-4-yl)-piperidin-4-yl]-ammonium; chloride] are 20 nM and 28% @.

Regarding `OC(CNC1CCN(c2ncnc3scc(-c4ccccc4)c23)CC1)COc1ccc(Cl)cc1` (centres unmarked) [[3-(4-Chloro-phenoxy)-2-hydroxy-propyl]-[1-(5-phenyl-thieno[2,3-d]pyrimidin-4-yl)-piperidin-4-yl]-ammonium; chloride], the inhibition constant Ki at NK1 receptors is 910 nM; at NK2 receptors (unit inferred), greater than 10000 nM.

The record behind these values is US20040138238A1, “Substituted aminopyrimidine compounds as neurokinin antagonists” (priority 2002, published 2004).
